In publication PMC7865522, “Analyzing Kinase Similarity in Small Molecule and Protein Structural Space to Explore the Limits of Multi-Target Screening” (Molecules, 2021):
Each block holds one compound with its values, some of them ahead of it.

Experiments:
[1] = target: panel of 290 kinases; set-up: method as in PMID 18183025; settings: cited from earlier work
[2] = target: T1, EGFR (Homo sapiens, UniProt P00533); test: Eurofins in vitro kinase inhibition assay; assay type: biochemical; settings: compound 20 µM; mean (SD); above 50% significant, 25-50% weak
T1 construct: purchased DiscoverX (KINOMEscan service); host or cells: E. coli BL21-derived host (T7 phage) or HEK-293
Procedure, shortened: (§1)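 Single-concentration screen at 20 µM. Substrate-analog phosphorylation with ATP for three kinases; HTRF PIP3 displacement for PI3K. Results reported as mean (SD) percentage inhibition relative to control.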

[3] = target: T2, ErbB2 (Homo sapiens, UniProt P04626); test: Eurofins in vitro kinase inhibition assay; assay type: biochemical; settings: compound 20 µM; mean (SD); above 50% significant, 25-50% weak
T2 construct: purchased DiscoverX (KINOMEscan service); host or cells: E. coli BL21-derived host (T7 phage) or HEK-293
Procedure, shortened: as §1

[4] = target: T3, BRAF (Homo sapiens, UniProt P15056); test: Eurofins in vitro kinase inhibition assay; assay type: biochemical; settings: compound 20 µM; mean (SD); above 50% significant, 25-50% weak
T3 construct: purchased DiscoverX (KINOMEscan service); host or cells: E. coli BL21-derived host (T7 phage) or HEK-293
Procedure, shortened: as §1

[5] = target: T4, PI3K (Homo sapiens, UniProt P42336); test: Eurofins in vitro kinase inhibition assay (HTRF, PIP3 displacement); assay type: biochemical; set-up: purchased Eurofins Cerep (contract assay); settings: compound 20 µM; mean (SD); above 50% significant, 25-50% weak
Procedure, shortened: as §1

[6] = target: T5, CDK2 (Homo sapiens, UniProt P24941); test: DiscoverX KINOMEscan competition binding assay; settings: compound 10 µM; lower values = higher affinity; below 35% = significant binding
T5 construct: purchased DiscoverX (KINOMEscan service); host or cells: E. coli BL21-derived host (T7 phage) or HEK-293
Procedure, shortened: (§2)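 Read-out is qPCR of kinase eluted from an immobilized-ligand affinity resin after competition with test compound (10 µM), expressed as % of control; lower values mean stronger binding. Kinase came as phage-tagged or HEK-293-derived DNA-tagged protein.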

[7] = target: T1, EGFR; test: DiscoverX KINOMEscan competition binding assay; settings: compound 10 µM; lower values = higher affinity; below 35% = significant binding
Procedure, shortened: as §2

[8] = target: T2, ErbB2; test: DiscoverX KINOMEscan competition binding assay; settings: compound 10 µM; lower values = higher affinity; below 35% = significant binding
Procedure, shortened: as §2

[9] = target: T6, MET (Homo sapiens, UniProt P08581); test: DiscoverX KINOMEscan competition binding assay; settings: compound 10 µM; lower values = higher affinity; below 35% = significant binding
T6 construct: purchased DiscoverX (KINOMEscan service); host or cells: E. coli BL21-derived host (T7 phage) or HEK-293
Procedure, shortened: as §2

[10] = target: T3, BRAF; test: DiscoverX KINOMEscan competition binding assay; settings: compound 10 µM; lower values = higher affinity; below 35% = significant binding
Procedure, shortened: as §2

[11] = target: T7, VEGFR2 (Homo sapiens, UniProt P35968); test: DiscoverX KINOMEscan competition binding assay; settings: compound 10 µM; lower values = higher affinity; below 35% = significant binding
T7 construct: purchased DiscoverX (KINOMEscan service); host or cells: E. coli BL21-derived host (T7 phage) or HEK-293
Procedure, shortened: as §2

[12] = target: T8, p38α (Homo sapiens, UniProt Q16539); test: DiscoverX KINOMEscan competition binding assay; settings: compound 10 µM; lower values = higher affinity; below 35% = significant binding
T8 construct: purchased DiscoverX (KINOMEscan service); host or cells: E. coli BL21-derived host (T7 phage) or HEK-293
Procedure, shortened: as §2

[13] = target: T9, LCK (Homo sapiens, UniProt P06239); test: DiscoverX KINOMEscan competition binding assay; settings: compound 10 µM; lower values = higher affinity; below 35% = significant binding
T9 construct: purchased DiscoverX (KINOMEscan service); host or cells: E. coli BL21-derived host (T7 phage) or HEK-293
Procedure, shortened: as §2

[14] = target: T4, PI3K; test: DiscoverX KINOMEscan competition binding assay; set-up: purchased DiscoverX (KINOMEscan service); host or cells: E. coli BL21-derived host (T7 phage) or HEK-293; settings: compound 10 µM; lower values = higher affinity; below 35% = significant binding
Procedure, shortened: as §2

T2 sequence (P04626 23-1255): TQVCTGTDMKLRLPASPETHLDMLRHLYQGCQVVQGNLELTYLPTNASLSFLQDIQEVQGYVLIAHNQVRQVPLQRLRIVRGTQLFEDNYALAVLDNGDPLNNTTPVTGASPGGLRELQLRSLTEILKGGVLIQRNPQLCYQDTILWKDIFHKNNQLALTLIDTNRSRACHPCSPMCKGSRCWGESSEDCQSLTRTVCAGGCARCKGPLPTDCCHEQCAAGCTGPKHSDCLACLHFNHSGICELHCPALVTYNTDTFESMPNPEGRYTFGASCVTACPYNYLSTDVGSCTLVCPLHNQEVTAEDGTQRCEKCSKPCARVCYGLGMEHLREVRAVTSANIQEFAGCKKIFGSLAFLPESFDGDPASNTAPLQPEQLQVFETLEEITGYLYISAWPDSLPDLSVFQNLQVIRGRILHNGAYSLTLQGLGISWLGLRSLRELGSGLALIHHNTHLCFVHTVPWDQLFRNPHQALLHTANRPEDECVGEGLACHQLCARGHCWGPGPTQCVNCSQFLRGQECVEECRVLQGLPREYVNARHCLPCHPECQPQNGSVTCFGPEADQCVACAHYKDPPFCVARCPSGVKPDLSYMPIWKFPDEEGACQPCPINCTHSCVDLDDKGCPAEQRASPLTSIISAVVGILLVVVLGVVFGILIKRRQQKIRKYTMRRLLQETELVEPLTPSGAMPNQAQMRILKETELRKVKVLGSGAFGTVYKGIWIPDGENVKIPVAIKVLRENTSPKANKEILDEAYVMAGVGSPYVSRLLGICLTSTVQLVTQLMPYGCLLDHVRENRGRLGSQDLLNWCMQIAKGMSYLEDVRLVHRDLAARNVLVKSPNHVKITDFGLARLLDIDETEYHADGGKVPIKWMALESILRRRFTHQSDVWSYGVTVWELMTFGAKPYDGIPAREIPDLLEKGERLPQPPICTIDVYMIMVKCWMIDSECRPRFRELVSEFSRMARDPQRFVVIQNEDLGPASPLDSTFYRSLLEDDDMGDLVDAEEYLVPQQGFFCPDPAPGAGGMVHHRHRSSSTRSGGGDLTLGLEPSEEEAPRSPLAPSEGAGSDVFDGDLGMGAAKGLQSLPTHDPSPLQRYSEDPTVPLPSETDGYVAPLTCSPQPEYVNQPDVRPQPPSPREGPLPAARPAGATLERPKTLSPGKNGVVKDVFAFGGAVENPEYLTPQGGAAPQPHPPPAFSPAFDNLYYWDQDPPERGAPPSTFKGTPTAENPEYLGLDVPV
T1 sequence (P00533 25-1210): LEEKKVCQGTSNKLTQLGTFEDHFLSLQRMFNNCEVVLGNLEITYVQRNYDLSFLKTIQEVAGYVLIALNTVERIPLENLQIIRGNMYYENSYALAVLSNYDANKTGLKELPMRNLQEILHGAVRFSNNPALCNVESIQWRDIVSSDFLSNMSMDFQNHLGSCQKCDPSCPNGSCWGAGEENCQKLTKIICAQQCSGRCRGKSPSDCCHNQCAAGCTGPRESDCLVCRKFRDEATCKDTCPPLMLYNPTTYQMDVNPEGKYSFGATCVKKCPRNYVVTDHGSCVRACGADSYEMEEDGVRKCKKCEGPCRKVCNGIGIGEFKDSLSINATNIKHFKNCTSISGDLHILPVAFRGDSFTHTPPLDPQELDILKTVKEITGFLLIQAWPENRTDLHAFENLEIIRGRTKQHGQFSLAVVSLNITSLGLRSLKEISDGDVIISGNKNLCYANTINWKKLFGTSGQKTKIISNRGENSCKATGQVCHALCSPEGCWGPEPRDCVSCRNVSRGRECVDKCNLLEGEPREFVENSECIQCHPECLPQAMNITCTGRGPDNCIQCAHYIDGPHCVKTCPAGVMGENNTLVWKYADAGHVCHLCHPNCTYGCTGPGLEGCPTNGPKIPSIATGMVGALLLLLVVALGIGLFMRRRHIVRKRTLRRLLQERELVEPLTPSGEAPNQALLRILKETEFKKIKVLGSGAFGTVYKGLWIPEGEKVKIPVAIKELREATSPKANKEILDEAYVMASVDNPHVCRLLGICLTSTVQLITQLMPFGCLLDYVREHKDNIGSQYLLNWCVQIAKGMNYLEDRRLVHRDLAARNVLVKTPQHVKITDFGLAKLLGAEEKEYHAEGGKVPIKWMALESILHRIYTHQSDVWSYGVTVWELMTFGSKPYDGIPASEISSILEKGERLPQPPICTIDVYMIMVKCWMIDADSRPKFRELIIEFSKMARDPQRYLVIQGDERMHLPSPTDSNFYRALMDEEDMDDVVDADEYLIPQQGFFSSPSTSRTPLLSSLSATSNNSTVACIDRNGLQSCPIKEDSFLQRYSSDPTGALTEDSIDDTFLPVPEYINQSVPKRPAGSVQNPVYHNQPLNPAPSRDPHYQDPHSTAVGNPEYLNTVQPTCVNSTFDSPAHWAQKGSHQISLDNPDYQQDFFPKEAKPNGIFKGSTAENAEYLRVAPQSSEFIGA
T3 sequence (P15056 whole entry): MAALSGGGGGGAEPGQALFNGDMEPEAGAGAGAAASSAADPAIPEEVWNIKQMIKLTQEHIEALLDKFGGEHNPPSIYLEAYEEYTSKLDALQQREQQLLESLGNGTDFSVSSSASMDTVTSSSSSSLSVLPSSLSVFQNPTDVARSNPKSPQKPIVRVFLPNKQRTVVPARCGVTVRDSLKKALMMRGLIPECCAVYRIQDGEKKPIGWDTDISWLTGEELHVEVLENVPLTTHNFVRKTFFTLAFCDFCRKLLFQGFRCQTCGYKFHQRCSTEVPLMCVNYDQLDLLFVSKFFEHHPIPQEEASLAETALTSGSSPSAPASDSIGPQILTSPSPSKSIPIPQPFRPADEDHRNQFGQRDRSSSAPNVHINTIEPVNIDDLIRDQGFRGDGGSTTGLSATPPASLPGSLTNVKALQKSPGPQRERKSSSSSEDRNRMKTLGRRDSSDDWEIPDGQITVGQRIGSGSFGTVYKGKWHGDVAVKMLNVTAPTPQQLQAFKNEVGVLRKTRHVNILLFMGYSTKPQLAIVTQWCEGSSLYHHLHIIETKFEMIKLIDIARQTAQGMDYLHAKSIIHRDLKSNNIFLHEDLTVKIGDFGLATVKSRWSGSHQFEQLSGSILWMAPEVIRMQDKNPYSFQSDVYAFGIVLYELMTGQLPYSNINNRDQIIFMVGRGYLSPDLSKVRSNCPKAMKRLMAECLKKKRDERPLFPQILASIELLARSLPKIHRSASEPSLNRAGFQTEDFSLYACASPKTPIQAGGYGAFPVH
T9 sequence (P06239 whole entry): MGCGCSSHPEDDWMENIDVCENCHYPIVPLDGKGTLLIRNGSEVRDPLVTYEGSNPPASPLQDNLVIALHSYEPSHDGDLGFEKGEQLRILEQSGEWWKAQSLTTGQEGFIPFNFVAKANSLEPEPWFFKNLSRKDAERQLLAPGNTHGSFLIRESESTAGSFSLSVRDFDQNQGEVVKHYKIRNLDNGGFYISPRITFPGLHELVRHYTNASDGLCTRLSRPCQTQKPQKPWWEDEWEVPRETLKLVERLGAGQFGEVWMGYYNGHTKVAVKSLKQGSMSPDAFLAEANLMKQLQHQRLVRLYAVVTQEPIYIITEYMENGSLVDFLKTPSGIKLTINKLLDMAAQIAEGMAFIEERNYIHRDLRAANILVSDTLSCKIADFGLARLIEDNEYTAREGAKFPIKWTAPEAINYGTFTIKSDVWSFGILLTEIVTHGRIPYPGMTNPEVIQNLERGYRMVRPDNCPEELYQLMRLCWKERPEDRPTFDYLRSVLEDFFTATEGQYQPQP
T8 sequence (Q16539 whole entry): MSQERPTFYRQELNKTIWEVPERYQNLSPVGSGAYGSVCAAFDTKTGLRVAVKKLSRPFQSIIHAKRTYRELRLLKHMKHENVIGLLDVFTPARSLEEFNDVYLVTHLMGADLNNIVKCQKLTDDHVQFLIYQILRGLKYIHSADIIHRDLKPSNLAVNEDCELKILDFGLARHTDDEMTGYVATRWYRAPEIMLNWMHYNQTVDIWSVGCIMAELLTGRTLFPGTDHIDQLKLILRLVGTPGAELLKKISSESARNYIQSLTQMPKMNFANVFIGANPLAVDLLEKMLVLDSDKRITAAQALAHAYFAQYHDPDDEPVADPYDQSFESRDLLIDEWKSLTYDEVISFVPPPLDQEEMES

SMILES: Cc1nc(Nc2ncc(C(=O)Nc3c(C)cccc3Cl)s2)cc(N2CCN(CCO)CC2)n1 [dasatinib]
kinase binding spectrum ([1]; TKs): binds to a broad spectrum of TKs with high affinity

SMILES: CCN(CC)CCNC(=O)c1c(C)[nH]c(/C=C2\C(=O)Nc3ccc(F)cc32)c1C [Sunitinib]
fraction of kinases bound in a panel ([1]; panel of 290 kinases): more than 50%

% inhibition of control activity, EGFR (Eurofins) [2]: 15.3 (7.7) % inhibition
% inhibition of control activity, ErbB2 (Eurofins) [3]: 0.7 (1.1) % inhibition
% inhibition of control activity, BRAF (Eurofins) [4]: -21.8 (9.5) % inhibition
% inhibition of control activity, PI3K (Eurofins) [5]: -3.7 (0.3) % inhibition
% control, CDK2 (DiscoverX) [6]: 100 % control
% control, EGFR (DiscoverX) [7]: 97 % control
% control, ErbB2 (DiscoverX) [8]: 100 % control
% control, MET (DiscoverX) [9]: 100 % control
% control, BRAF (DiscoverX) [10]: 100 % control
% control, VEGFR2 (DiscoverX) [11]: 97 % control
% control, p38α (DiscoverX) [12]: 99 % control
% control, LCK (DiscoverX) [13]: 89 % control
% control, PI3K (DiscoverX) [14]: 100 % control
SMILES: COc1ccc(-c2nn(C(C)=O)c3c2C(=O)CC(C)(C)C3)cc1 [DS18339]
